In patent US20230148599A1, “FUNGICIDAL MIXTURES CONTAINING PYRAZOLE DERIVATIVES” (FMC Corporation, priority 2020, published 2023):

How the values were obtained:
Assay type in all cases: in vivo
Conditions in all cases: 50 ppm, 100 = 100% disease control, 0 = no control
Septoria tritici = experiment: Test A: wheat leaf blotch, preventive spray on wheat seedlings
Outline: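 Preventive test: one day after spraying seedlings to run-off (concentrations in ppm; acetone/water, 250 ppm PEG400), Septoria tritici spores applied. Scored after 48 h humid incubation at 24 °C plus 17 days at 20 °C, as percent disease control versus untreated controls (100 = full control).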

[1] = tested on: Puccinia recondita f. sp. tritici; experiment: Test B: wheat leaf rust, preventive spray on wheat seedlings
Outline: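 Preventive test: compound in acetone/water 50/50 with 250 ppm PEG400 was sprayed onto wheat seedlings one day before inoculation with leaf rust spores. After 24 h in saturated air and 7 days in a growth chamber, both at 20 °C, disease control was scored from 0 to 100 against controls.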

[2] = tested on: Blumeria graminis f. sp. tritici; experiment: Test C: wheat powdery mildew, preventive spray on wheat seedlings
Outline: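 Preventive test: inoculation with spore dust came one day after spraying seedlings to run-off with ppm suspensions in acetone/water (50/50) plus 250 ppm PEG400 surfactant. Visual ratings after 8 days' incubation at 20° C give percent disease control relative to controls.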

Phakopsora pachyrhizi = experiment: Test D: Asian soybean rust, preventive spray on soybean seedlings
Outline: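 Compounds in acetone/water (50/50) with 250 ppm PEG400, dosed in ppm, sprayed to run-off on soybean seedlings; inoculated with P. pachyrhizi spores next day. Held 24 h at 22 °C in saturated air, then 8 days at 22 °C; visual rating of disease control, 0–100, relative to untreated controls.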

Botrytis cinerea = experiment: Test E: tomato Botrytis, preventive spray on tomato seedlings
Outline: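 Preventive test: seedlings sprayed to run-off with compound in acetone/water (50/50) plus 250 ppm PEG400, inoculated one day later with B. cinerea spores. Held 48 h saturated at 20° C, then 3 days at 24° C; disease control scored visually from 0 to 100 versus controls.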

Alternaria solani = experiment: Test F: tomato early blight, preventive spray on tomato seedlings
Outline: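 Preventive test: one day after the compound spray, seedlings were inoculated with A. solani, incubated saturated at 27 °C for 48 h, then kept at 20 °C for 3 days. Test suspensions contained acetone/water 50/50 with 250 ppm PEG400 surfactant. Visual ratings run from 0 (no control) to 100 (full control).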

SMILES	Test A disease control rating (Septoria tritici)	Test B disease control rating [1]	Test C disease control rating [2]	Test D disease control rating (Phakopsora pachyrhizi)	Test E disease control rating (Botrytis cinerea)	Test F disease control rating (Alternaria solani)
Cc1nn(C)c(Nc2c(F)cccc2[N+](=O)[O-])c1-c1c(F)cc(F)cc1F [compound 62]	100%	100%	100%	100%	99%	99%
Cc1nn(C)c(Nc2c(F)cccc2[N+](=O)[O-])c1-c1c(F)cccc1F [compound 63]	100%	99%	86%	0%	100%	96%
COc1ccc(-c2c(C)nn(C)c2Nc2c(F)cc(F)cc2[N+](=O)[O-])c(Cl)c1 [compound 64]	100%	100%	98%	97%	98%	99%
COc1ccc(-c2c(C)nn(C)c2Nc2c(Cl)cc(Cl)cc2[N+](=O)[O-])c(Cl)c1 [compound 65]	94%	89%	56%	66%	16%	46%
COc1ccc(-c2c(C)nn(C)c2Nc2c(Cl)cc(C)cc2[N+](=O)[O-])c(Cl)c1 [compound 66]	100%	100%	98%	97%	98%	96%
Cc1nn(C)c(Nc2c(Cl)cc(F)cc2[N+](=O)[O-])c1-c1ccc(F)cc1F [compound 67]	100%	100%	89%	69%	98%	33%
Cc1nn(C)c(Nc2c(F)cccc2[N+](=O)[O-])c1-c1ccc(Cl)cc1Cl [compound 69]	100%	100%	97%	77%	100%	99%
COc1cc(F)c(-c2c(C)nn(C)c2Nc2c(F)cccc2[N+](=O)[O-])c(F)c1 [compound 70]	100%	100%	99%	84%	99%	99%
CCn1nc(C)c(-c2ccc(F)cc2Cl)c1Nc1c(F)cccc1[N+](=O)[O-] [compound 71]	100%	100%	99%	82%	99%	98%
COc1ccc(-c2c(C)nn(C)c2Nc2ccc(Cl)cc2[N+](=O)[O-])c(Cl)c1 [compound 74]	99%	86%	81%	74%	99%	85%
Cc1nn(C)c(Nc2c(F)cc(F)cc2[N+](=O)[O-])c1-c1c(F)cccc1F [compound 75]	100%	99%	90%	0%	57%	98%
Cc1nn(C)c(Nc2c(Cl)cc(F)cc2[N+](=O)[O-])c1-c1c(F)cccc1F [compound 76]	100%	99%	95%	25%	87%	0%
Cc1nn(C)c(Nc2c(Cl)cccc2[N+](=O)[O-])c1-c1c(F)cccc1F [compound 77]	100%	100%	95%	73%	72%	9%
Cc1nn(C)c(Nc2ccc(Cl)cc2[N+](=O)[O-])c1-c1ccc(F)cc1F [compound 78]	100%	89%	95%	0%	68%	0%
Cc1nn(C)c(Nc2c(Cl)cccc2[N+](=O)[O-])c1-c1ccc(F)cc1F [compound 79]	100%	100%	91%	44%	98%	0%
COc1cc(Cl)c(Nc2c(-c3ccc(F)cc3Cl)c(C)nn2C)c([N+](=O)[O-])c1 [compound 80]	100%	100%	97%	50%	95%	98%
COc1ccc(-c2c(C)nn(C)c2Nc2c(F)cc(Cl)cc2[N+](=O)[O-])c(Cl)c1 [compound 81]	100%	99%	89%	0%	95%	99%
COc1cc(F)c(-c2c(C)nn(C)c2Nc2c(Cl)cc(Cl)cc2[N+](=O)[O-])c(F)c1 [compound 82]	100%	100%	58%	59%	96%	97%
COc1cc(F)c(-c2c(C)nn(C)c2Nc2ccc(F)cc2[N+](=O)[O-])c(F)c1 [compound 83]	99%	91%	99%	0%	98%	99%
COc1cc(F)c(-c2c(C)nn(C)c2Nc2c(F)cc(F)cc2[N+](=O)[O-])c(F)c1 [compound 84]	100%	100%	99%	48%	90%	99%
COc1cc(F)c(Nc2c(-c3ccc(F)cc3Cl)c(C)nn2C)c([N+](=O)[O-])c1 [compound 85]	100%	100%	97%	96%	94%	98%
